Measured values taken from article PMC5037861 (BMC Research Notes, 2016).

Assays:
human B2R [1] = biological target: T1, human B2R (Homo sapiens, UniProt P30411); assay: Competition of [3H]BK (3 nM) binding to HEK 293a cells stably expressing myc-tagged human B2R; settings: from binding competition IC50 values
T1 construct: expressed in transfected cells; host or cells: HEK 293a
T1 sequence (P30411 1-391): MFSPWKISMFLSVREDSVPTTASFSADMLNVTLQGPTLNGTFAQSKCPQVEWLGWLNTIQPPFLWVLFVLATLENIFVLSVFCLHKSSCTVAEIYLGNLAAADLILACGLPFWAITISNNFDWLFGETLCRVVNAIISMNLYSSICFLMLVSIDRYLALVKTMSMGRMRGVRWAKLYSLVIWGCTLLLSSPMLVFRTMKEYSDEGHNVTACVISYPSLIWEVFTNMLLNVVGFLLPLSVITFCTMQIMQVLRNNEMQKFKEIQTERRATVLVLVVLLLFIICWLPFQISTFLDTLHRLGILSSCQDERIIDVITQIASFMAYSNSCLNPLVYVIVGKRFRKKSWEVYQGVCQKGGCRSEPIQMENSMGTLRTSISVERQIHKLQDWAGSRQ
Text: Values are the means ± SEM. of the number of duplicate determinations indicated by n. Average specific binding without competitor (100 %) averaged 133.8 fmol/well.

human myc-tagged B2Rs = test system: T2, human myc-tagged B2Rs; assay: Cytofluorometry of detached HEK 293a cells stably expressing human myc-tagged B2Rs; format: cell-based
T2 construct: expressed in transfected cells; host or cells: HEK 293a
Protocol: A subclone of HEK 293 cells, called HEK 293a, originally obtained from Sigma-Aldrich was used in these experiments, either as a non-transfected cell type or as one stably expressing myc-tagged human B2Rs. These cells were grown in Dulbecco’s modified Eagle’s medium supplemented with 10 % fetal bovine serum, 1 % L-glutamine, and 1 % penicillin–streptomycin stock solutions (100×). Cells were detached using the protease-free Cell Dissociation Buffer (Invitrogen), incubated in D-MEM without serum at 37 °C for 30 min under agitation in the presence of a Cy7-conjugated ligands and other drugs, rapidly centrifuged (30 s, 11,000g) and resuspended in phosphate buffered saline. Then, the fluorescence of the cell suspensions was assessed using the BD SORP LSR II cell analyzer for the uptake of the as a function of stimulation and transgene expression. The cytofluorometry results were analyzed using the BD FACS DIVA software.

rabbit B2R-GFP = test system: T3, rabbit B2R-GFP; assay: Confocal microscopy of HEK 293 cells stably expressing B2R-GFP; format: cell-based; settings: for infrared labeling of cells: followed by rinsing
T3 construct: expressed in transfected cells; host or cells: HEK 293

[2] = test system: T4, β2-adrenoceptor-GFP Topaz fusion protein; assay: Confocal microscopy of HEK 293 cells transiently expressing β2-adrenoceptor-GFP Topaz (specificity control); format: cell-based; settings: for labeling of cells expressing β2-adrenoceptor-GFP Topaz: B-10665 10 nM, B-10666 100 nM, 30 min; for β2-adrenoceptor-GFP endocytosis: isoproterenol 100 nM 30 min, propranolol 1 μM pretreatment
T4 construct: expressed in transfected cells; host or cells: HEK 293 (transient, polyethylenimine); vector a gift from Prof; Michel Bouvier

human B2R [3] = biological target: T1, human B2R; assay: IVIS infrared fluorescence imaging of cell wells, HEK 293a cells expressing human myc-B2R; format: cell-based; settings: 1–10 nM, 30 min, 37 °C
Text: (§1) The apparatus was set in fluorescence mode with filters at 675 nm (excitation) and 831 nm (emission), medium binning and 60 s exposure time. This experiment exploited HEK 293a cells grown in 24-well plates that stably expressed either human or rat B2R sequences N-terminally tagged with the myc epitope. Expression of these receptors as a function of pharmacologic treatment was controlled in separate plates of cells that were not fixed or permeabilized using the binding of anti-myc monoclonal antibody (clone 4A6, Millipore, dilution 1:1000) added along goat horseradish peroxidase-conjugated anti-mouse IgG antibodies (Santa Cruz, dilution 1:1000). […] The resulting blue precipitate was photographed at the macroscopic scale.

rat B2R = test system: T5, rat B2R; assay: IVIS infrared fluorescence imaging of cell wells, HEK 293a cells expressing rat myc-B2R; format: cell-based; settings: 1–10 nM, 30 min, 37 °C
T5 construct: expressed in transfected cells; host or cells: HEK 293a
Text: as §1

endogenous B2R [4] = biological target: T6, endogenous B2R (Homo sapiens, UniProt P30411); assay: IVIS infrared fluorescence imaging of slices of human umbilical cord; set-up: The human umbilical vein is a contractile bioassay for the endogenous B2R; from tissue; host or cells: human isolated umbilical vein (A2); slices of human umbilical cord (A8); settings: up to 250 nM, data not shown
T6 sequence (P30411 1-391): T1 sequence (P30411 1-391)

endogenous B2R [5] = biological target: T6, endogenous B2R; assay: Human isolated umbilical vein contractility assay; set-up: The human umbilical vein is a contractile bioassay for the endogenous B2R; from tissue; host or cells: human isolated umbilical vein (A2); slices of human umbilical cord (A8); settings: agonist contraction; based on an extrapolated concentration-effect curve
Protocol: Local ethics review boards approved the anonymous use of segments of human umbilical cords obtained following elective cesarean sections; informed consent was obtained from the mothers. Novel Cy-7 conjugated B2R ligands were assayed via the contraction of the human isolated umbilical vein [9, 10]. Cumulative concentration effect curves were constructed for the agonist version and its potency compared to that of BK. […] Results are presented as mean ± SEM. Radioligand binding data were fitted by nonlinear regression to a one-site competition equation using a least-square method (Prism 5.0, GraphPad Software Inc., San Diego, CA, USA) and IC50 values with their 95 % confidence limits were calculated from this procedure. The same computer program was used to draw concentration-effect curves (least square fitting of sigmoidal dose–response equation with variable slope) and to derive contractile EC50 values.

endogenous B2R [6] = biological target: T6, endogenous B2R; set-up: The human umbilical vein is a contractile bioassay for the endogenous B2R; from tissue; host or cells: human isolated umbilical vein (A2); settings: cited from earlier work; for pA2: antagonism of BK-induced contraction

With CN1C(=CC=C2C=C(C=CC3=[N+](CCCCCC(=O)N[C@H](CCCNC(=N)N)C(=O)N[C@@H](CCCNC(=N)N)C(=O)N4CCC[C@H]4C(=O)N4C[C@H](O)C[C@H]4C(=O)NCC(=O)N[C@H](C(=O)N[C@@H](CO)C(=O)N[C@@H](C(=O)N4[C@H](C(=O)N[C@@H](CCCNC(=N)N)C(=O)O)C[C@@H]5CCCC[C@@H]54)C4Cc5ccccc5C4)C4Cc5ccccc5C4)c4ccccc4C3(C)C)CCC2)C(C)(C)c2ccccc21 [Peptide B-10665, Cy7-B-9430] the “loss of affinity vs. parent peptide” value (human B2R [1]) was “about equipotent to its parent peptide”, the “binding detected by infrared fluorescence (cell labeling)” value (human myc-tagged B2Rs; 30 min, 37 °C, detached intact cells) was “specific binding that plateaued in the low nanomolar range” and the “infrared labeling of cells” value (rabbit B2R-GFP; 30 min, 37 °C) was “labelled essentially plasma membranes in the infrared if and only if B2R-GFP was expressed”. For the same compound, the “labeling of cells expressing β2-adrenoceptor-GFP Topaz” value [2] was “Lack of labeling”, the “infrared staining of cell wells” value (human B2R [3]) was “stained the cell wells (from a 24-well plate) in a concentration-dependent manner” and the “infrared staining of cell wells” value (rat B2R) was “more so for the rat construction”. The “detection of endogenous B2R” value (endogenous B2R [4]) was “could not detect endogenous B2R presence”.

In the case of CN1C(=CC=C2C=C(C=CC3=[N+](CCCCCC(=O)N[C@H](CCCNC(=N)N)C(=O)N[C@@H](CCCNC(=N)N)C(=O)N4CCC[C@H]4C(=O)N4C[C@H](O)C[C@H]4C(=O)NCC(=O)N[C@H](C(=O)N[C@@H](CO)C(=O)N4[C@H](C(=O)N[C@H](C(=O)N[C@@H](CCCNC(=N)N)C(=O)O)C5Cc6ccccc6C5)C[C@@H]5CCCC[C@@H]54)C4Cc5ccccc5C4)c4ccccc4C3(C)C)CCC2)C(C)(C)c2ccccc21 [Peptide B-10666, Cy7-B-9972], the “loss of affinity vs. parent peptide” value (human B2R [1]) is reported as ~ 35 fold, the “infrared labeling of cells” value (rabbit B2R-GFP; 30 min, 37 °C) is reported as “did not label untransfected cells or icatibant-pretreated receptor-expressing cells” and the “endocytosis of B2R-GFP” value (rabbit B2R-GFP; 30 min, 37 °C, live cells) is reported as “determined the endocytosis of a fraction of the plasma membrane receptors”. For the same compound, the “labeling of cells expressing β2-adrenoceptor-GFP Topaz” value [2] was “Lack of labeling” and the “loss of potency vs. BK” value (endogenous B2R [5]) was 4240 fold.

For CC(C)NCC(O)COc1cccc2ccccc12 (centres unmarked) [propranolol, reference compound], the β2-adrenoceptor-GFP endocytosis [2] was “agonist-induced endocytosis was prevented”.

In the case of CC(C)NCC(O)c1ccc(O)c(O)c1 (centres unmarked) [isoproterenol, reference compound], the β2-adrenoceptor-GFP endocytosis [2] is reported as “the receptors are then translocated into endosomes”.

In the case of FTC-B-9430, the pA2 (endogenous B2R [6]) is listed as 6.96.

In the case of “fluorescein-5-thiocarbamoyl (FTC)-B-9972 [FTC-B-9972]”, the EC50 (endogenous B2R [6]; contraction) is listed as 108 nM.

With icatibant [reference compound] the “competition of B-10665 binding” value (human myc-tagged B2Rs; icatibant applied 15 min before B-10665) was “extensive competition” and the “prevention of B-10665 (10 nM) plasma membrane fluorescence” value (rabbit B2R-GFP; pretreatment of B2R-GFP-expressing cells) was “prevented”.

For N=C(N)NCCC[C@@H](N)C(=O)N[C@@H](CCCNC(=N)N)C(=O)N1CCC[C@H]1C(=O)N1C[C@H](O)C[C@H]1C(=O)NCC(=O)N[C@H](C(=O)N[C@@H](CO)C(=O)N1[C@H](C(=O)N[C@H](C(=O)N[C@@H](CCCNC(=N)N)C(=O)O)C2Cc3ccccc3C2)C[C@@H]2CCCC[C@@H]21)C1Cc2ccccc2C1 [Peptide B-9972, D-Arg-[Hyp^3,Igl^5,Oic^7,Igl^8]-BK, reference compound], the “loss of affinity vs. parent peptide” value (human B2R [1]) was “~ twofold”.

In the case of N=C(N)NCCC[C@@H](N)C(=O)N[C@@H](CCCNC(=N)N)C(=O)N1CCC[C@H]1C(=O)N1C[C@H](O)C[C@H]1C(=O)NCC(=O)N[C@H](C(=O)N[C@@H](CO)C(=O)N[C@@H](C(=O)N1[C@H](C(=O)N[C@@H](CCCNC(=N)N)C(=O)O)C[C@@H]2CCCC[C@@H]21)C1Cc2ccccc2C1)C1Cc2ccccc2C1 [Peptide B-9430, D-Arg-[Hyp^3,Igl^5,D-Igl^7,Oic^8]-BK], the pA2 (endogenous B2R [6]) is given as 7.7.
